Data: PubChem BioAssay AID1259407 (Chemical Carcinogenesis Research Information System (CCRIS), 2018)
The source made the active and inactive calls. The rule behind the calls is not given here.

Tested on: CCRIS mutagenicity, Ames/micronucleus/aberration tests
Assay: CCRIS mutagenicity studies
[1] = Test System: AMES SALMONELLA TYPHIMURIUM, Strain/Indicator: TA100, Metabolic Activation: NONE, Method: STANDARD PLATE
[2] = Test System: AMES SALMONELLA TYPHIMURIUM, Strain/Indicator: TA98, Metabolic Activation: NONE, Method: PREINCUBATION
[3] = Test System: AMES SALMONELLA TYPHIMURIUM, Strain/Indicator: TA100, Metabolic Activation: NONE, Method: PREINCUBATION
[4] = Test System: AMES SALMONELLA TYPHIMURIUM, Strain/Indicator: TA1535, Metabolic Activation: NONE, Method: PREINCUBATION
[5] = Test System: AMES SALMONELLA TYPHIMURIUM, Strain/Indicator: TA1537, Metabolic Activation: NONE, Method: PREINCUBATION

With c1ccc2c(c1)c1cccc3ccc4cccc2c4c31 as the compound, how does the mutagenic call (End Point: IN VITRO MICRONUCLEUS, Test System: CHINESE HAMSTER V79 CELLS, Metabolic Activation: S-9) read?
Its mutagenic call is “active; positive”.

And the mutagenic call (Test System: AMES SALMONELLA TYPHIMURIUM, Strain/Indicator: TA97, Metabolic Activation: NONE, Method: STANDARD PLATE)?
Its mutagenic call is “inactive; negative”.

What about the mutagenic call (Test System: AMES SALMONELLA TYPHIMURIUM, Strain/Indicator: TA97, Metabolic Activation: RAT, LIVER, S-9, PCB, Method: STANDARD PLATE) of the same compound?
Its mutagenic call is “active; positive”.

And the mutagenic call (Test System: AMES SALMONELLA TYPHIMURIUM, Strain/Indicator: TA98, Metabolic Activation: NONE, Method: STANDARD PLATE)?
Its mutagenic call is “inactive; negative”.

And the mutagenic call (Test System: AMES SALMONELLA TYPHIMURIUM, Strain/Indicator: TA98, Metabolic Activation: RAT, LIVER, S-9, AROCLOR 1254, Method: STANDARD PLATE)?
The mutagenic call was “active; positive”.

And the mutagenic call (Test System: AMES SALMONELLA TYPHIMURIUM, Strain/Indicator: TA98, Metabolic Activation: RAT, LIVER, S-9, PCB, Method: STANDARD PLATE)?
The mutagenic call was “active; positive”.

What about the mutagenic call (Test System: AMES SALMONELLA TYPHIMURIUM, Strain/Indicator: TA100, Metabolic Activation: MOUSE, LIVER, MICROSOMES, BENZO[E]PYRENE AND TCDD, Method: STANDARD PLATE) of the same compound?
Its mutagenic call is “inactive; negative”.

What about the mutagenic call [1] of the same compound?
Its mutagenic call is “inactive; negative”.

And the mutagenic call (Test System: AMES SALMONELLA TYPHIMURIUM, Strain/Indicator: TA100, Metabolic Activation: RAT, LIVER, S-9, AROCLOR 1254, Method: STANDARD PLATE)?
Its mutagenic call is “active; positive”.

And the mutagenic call (Test System: AMES SALMONELLA TYPHIMURIUM, Strain/Indicator: TA100, Metabolic Activation: RAT, LIVER, S-9, PCB, Method: STANDARD PLATE)?
Its mutagenic call is “active; positive”.

What about the mutagenic call (Test System: E. COLI, Strain/Indicator: WP2 UVRA, Metabolic Activation: HAMSTER, LIVER, S-9, AROCLOR 1254, Method: STANDARD PLATE) of the same compound?
The mutagenic call was “inactive; negative”.

What about the mutagenic call (Test System: E. COLI, Strain/Indicator: WP2 UVRA, Metabolic Activation: HAMSTER, LIVER, S-9, Method: STANDARD PLATE) of the same compound?
Its mutagenic call is “inactive; negative”.

What about the mutagenic call (Test System: E. COLI, Strain/Indicator: WP2 UVRA, Metabolic Activation: MOUSE, LIVER, S-9, AROCLOR 1254, Method: STANDARD PLATE) of the same compound?
Its mutagenic call is “inactive; negative”.

What about the mutagenic call (Test System: E. COLI, Strain/Indicator: WP2 UVRA, Metabolic Activation: MOUSE, LIVER, S-9, Method: STANDARD PLATE) of the same compound?
Its mutagenic call is “inactive; negative”.

What about the mutagenic call (Test System: E. COLI, Strain/Indicator: WP2 UVRA, Metabolic Activation: NONE, Method: STANDARD PLATE) of the same compound?
Its mutagenic call is “inactive; negative”.

And the mutagenic call (Test System: E. COLI, Strain/Indicator: WP2 UVRA, Metabolic Activation: RAT, LIVER, S-9, AROCLOR 1254, Method: STANDARD PLATE)?
Its mutagenic call is “inactive; negative”.

And the mutagenic call (Test System: E. COLI, Strain/Indicator: WP2 UVRA, Metabolic Activation: RAT, LIVER, S-9, Method: STANDARD PLATE)?
Its mutagenic call is “inactive; negative”.

And the mutagenic call (Test System: MOUSE LYMPHOMA, Strain/Indicator: L5178Y (TK+/TK-), Metabolic Activation: NONE, Method: SUSPENSION/PLATE)?
Its mutagenic call is “inactive; negative”.

What about the mutagenic call (Test System: MOUSE LYMPHOMA, Strain/Indicator: L5178Y (TK+/TK-), Metabolic Activation: RAT, LIVER, S-9, AROCLOR 1254, Method: SUSPENSION/PLATE) of the same compound?
Its mutagenic call is “active; positive”.

What about the mutagenic call (Test System: MOUSE LYMPHOMA, Strain/Indicator: L5178Y (TK+/TK-), Metabolic Activation: RAT, LIVER, S-9, Method: SUSPENSION/PLATE) of the same compound?
The mutagenic call was “inactive; negative”.

And the mutagenic call (Test System: UDS HUMAN CELLS, Strain/Indicator: THY INCORP (NON-S-PHASE), Metabolic Activation: RAT, LIVER, S-9, 3-METHYLCHOLANTHRENE, Method: LIQUID SCINTILLATION COUNTING)?
The mutagenic call was “active; positive”.

COC(=O)C1=C(C)NC(C)=C(C(=O)OCC(C)=O)C1c1ccccc1[N+](=O)[O-] (stereo unspecified) was tested. Which mutagenic call [2] did it give?
The mutagenic call was “inactive; negative”.

What about the mutagenic call (Test System: AMES SALMONELLA TYPHIMURIUM, Strain/Indicator: TA98, Metabolic Activation: S-9, Method: PREINCUBATION) of the same compound?
The mutagenic call was “inactive; negative”.

What about the mutagenic call [3] of the same compound?
Its mutagenic call is “inactive; negative”.

And the mutagenic call (Test System: AMES SALMONELLA TYPHIMURIUM, Strain/Indicator: TA100, Metabolic Activation: S-9, Method: PREINCUBATION)?
The mutagenic call was “inactive; negative”.

What about the mutagenic call [4] of the same compound?
Its mutagenic call is “inactive; negative”.

And the mutagenic call (Test System: AMES SALMONELLA TYPHIMURIUM, Strain/Indicator: TA1535, Metabolic Activation: S-9, Method: PREINCUBATION)?
Its mutagenic call is “inactive; negative”.

And the mutagenic call [5]?
The mutagenic call was “inactive; negative”.

What about the mutagenic call (Test System: AMES SALMONELLA TYPHIMURIUM, Strain/Indicator: TA1537, Metabolic Activation: S-9, Method: PREINCUBATION) of the same compound?
Its mutagenic call is “inactive; negative”.

And the mutagenic call (Test System: E.COLI, Strain/Indicator: WP2 UVRA, Metabolic Activation: NONE, Method: PREINCUBATION)?
The mutagenic call was “inactive; negative”.

And the mutagenic call (Test System: E.COLI, Strain/Indicator: WP2 UVRA, Metabolic Activation: S-9, Method: PREINCUBATION)?
The mutagenic call was “inactive; negative”.

For Nc1nc2c(ncn2COCCO)c(=O)[nH]1, which mutagenic call (End Point: IN VITRO CHROMOSOMAL ABERRATIONS, Test System: CHO CELLS (CHO-HSVTK), Metabolic Activation: NONE) is on record?
Its mutagenic call is “active; positive (structural changes); concentration chosen also induced apoptosis”.

For CC(C)(C)C1=CC(=O)C=C(C2=CC(=O)C=C(C(C)(C)C)C2=O)C1=O, which mutagenic call [2] is on record?
The mutagenic call was “active; positive”.

What about the mutagenic call [3] of the same compound?
Its mutagenic call is “active; positive”.

With CN(C)CCC(c1ccccc1)c1ccccn1 (stereo unspecified) as the compound, how does the mutagenic call (Test System: AMES SALMONELLA TYPHIMURIUM, Strain/Indicator: TA98, Metabolic Activation: HAMSTER, LIVER, S-9, AROCLOR 1254 (10%), Method: PREINCUBATION) read?
The mutagenic call was “inactive; negative”.

What about the mutagenic call [2] of the same compound?
The mutagenic call was “inactive; negative”.

What about the mutagenic call (Test System: AMES SALMONELLA TYPHIMURIUM, Strain/Indicator: TA98, Metabolic Activation: RAT, LIVER, S-9, AROCLOR 1254 (10%), Method: PREINCUBATION) of the same compound?
The mutagenic call was “inactive; negative”.

What about the mutagenic call (Test System: AMES SALMONELLA TYPHIMURIUM, Strain/Indicator: TA100, Metabolic Activation: HAMSTER, LIVER, S-9, AROCLOR 1254 (10%), Method: PREINCUBATION) of the same compound?
Its mutagenic call is “inactive; negative”.

What about the mutagenic call [3] of the same compound?
The mutagenic call was “inactive; negative”.

What about the mutagenic call (Test System: AMES SALMONELLA TYPHIMURIUM, Strain/Indicator: TA100, Metabolic Activation: RAT, LIVER, S-9, AROCLOR 1254 (10%), Method: PREINCUBATION) of the same compound?
Its mutagenic call is “inactive; negative”.

What about the mutagenic call (Test System: AMES SALMONELLA TYPHIMURIUM, Strain/Indicator: TA1535, Metabolic Activation: HAMSTER, LIVER, S-9, AROCLOR 1254 (10%), Method: PREINCUBATION) of the same compound?
The mutagenic call was “inactive; negative”.

What about the mutagenic call [4] of the same compound?
The mutagenic call was “inactive; negative”.

What about the mutagenic call (Test System: AMES SALMONELLA TYPHIMURIUM, Strain/Indicator: TA1535, Metabolic Activation: RAT, LIVER, S-9, AROCLOR 1254 (10%), Method: PREINCUBATION) of the same compound?
The mutagenic call was “inactive; negative”.

What about the mutagenic call (Test System: AMES SALMONELLA TYPHIMURIUM, Strain/Indicator: TA1537, Metabolic Activation: HAMSTER, LIVER, S-9, AROCLOR 1254 (10%), Method: PREINCUBATION) of the same compound?
The mutagenic call was “inactive; negative”.

And the mutagenic call [5]?
The mutagenic call was “inactive; negative”.

What about the mutagenic call (Test System: AMES SALMONELLA TYPHIMURIUM, Strain/Indicator: TA1537, Metabolic Activation: RAT, LIVER, S-9, AROCLOR 1254 (10%), Method: PREINCUBATION) of the same compound?
The mutagenic call was “inactive; negative”.

For Fc1ccc2c3c(ccc2c1)-c1cccc2cccc-3c12, which mutagenic call (Test System: AMES SALMONELLA TYPHIMURIUM, Strain/Indicator: TA97A, Metabolic Activation: RAT, LIVER, S-9, AROCLOR 1254, Method: PREINCUBATION) is on record?
Its mutagenic call is “active; positive”.

And the mutagenic call (Test System: AMES SALMONELLA TYPHIMURIUM, Strain/Indicator: TA98, Metabolic Activation: RAT, LIVER, S-9, AROCLOR 1254, Method: PREINCUBATION)?
Its mutagenic call is “active; positive”.

What about the mutagenic call (Test System: AMES SALMONELLA TYPHIMURIUM, Strain/Indicator: TA100, Metabolic Activation: RAT, LIVER, S-9, AROCLOR 1254, Method: PREINCUBATION) of the same compound?
The mutagenic call was “active; positive”.

How did the mutagenic call (Test System: AMES SALMONELLA TYPHIMURIUM, Strain/Indicator: TA100, Metabolic Activation: MOUSE, LIVER, S-9, AROCLOR 1254, Method: STANDARD PLATE) turn out when CN(Cc1ccccc1)C(=O)CBr was run?
Its mutagenic call is “inactive; negative”.

What about the mutagenic call [1] of the same compound?
The mutagenic call was “inactive; negative”.
